“Also recorded” adds a separate entry of the source.
Experiments:
[1] = tested on: acute self-limiting colitis in mice; experiment: Gross visual observations of the murine abdomen (Example 3); format: in vivo; details: necropsy after 3 days of steroid gavage
Text: Under isoflurane anesthesia, mice were terminally bled by cardiac puncture and then humanely euthanized by cervical dislocation. All collected blood was separated into serum that was dedicated for steroid detection and optimization of steroid detection procedures. Following euthanasia, a midline laparotomy was made and gross observations of the abdominal regions were photo-documented. Approximately 1 cm sections of the cecum, and the most proximal and distal portions of the colon were divided for histological examination. Cecal and colonic tissues were flash frozen in liquid nitrogen for future immunological protein quantification. Digesta extracted from the colon was stored at −80° C. for future steroid detection, and fresh feces from the cages were used to enumerate Bacteroides ovatus and Citrobacter rodentium by microbiological techniques on the same day as the necropsy.

[2] = tested on: acute self-limiting colitis in mice; experiment: Histological scoring of inflammation, C. rodentium colitis in mice with normal enteric microbiota (Example 7); format: in vivo; details: CR+/BO+ mice; prednisolone forms 1 mg/kg, dexamethasone forms 1.5 mg/kg (equivalent); one day following steroid treatment
Protocol: Approval to conduct this project was obtained from the AAFC LeRDC Animal Care Committee (Animal Use Protocol 1911). […] The methods employed were essentially the same as those described in Example 3, except that the Citrobacter rodentium (CR) was administered to incite acute self-limiting colitis in mice prior to colonization with Bacteroides ovatus (BO). […] FIG. 20 provides a schematic illustrating the study design and timelines.
As in the study described in Example 3, there were gross histopathological differences in the distal colon tissue obtained from mice in the different treatment groups. Histological scoring of inflammation was performed by a board-certified pathologist blinded to treatment. […] Following CR infection, with no treatment, neutrophil infiltration was evident and the histological score was 10. […] Evidence of enhanced amelioration of protein markers of inflammation were also observed. […] IL-12p70 is a pro-inflammatory cytokine involved in cell-mediated immunity. For example, it is known as a T cell-stimulating factor, which can stimulate the growth and function of T cells. Moreover, it stimulates the production of interferon-gamma (IFN-γ) and tumor necrosis factor-alpha (TNF-α) from T cells and natural killer (NK) cells, and reduces IL-4 mediated suppression of IFN-γ.

[3] = tested on: acute self-limiting colitis in mice; experiment: Histological scoring of inflammation, C. rodentium colitis in germ-free mice colonized with B. ovatus (Example 3); format: in vivo; details: n=2; for Crypt Height / Epithelia Hyperplasia / Epithelial Injury / Fibrosis / Globlet cell / Inflamm / Mitotic Act.: gavage 3 days, prednisolone forms 1 mg/kg/day, dexamethasone forms 0.6 mg/kg/day; for Total Score: sum of each scoring category
[4] = Dissolution of steroid in sterile water for gavage; format: physicochemical; details: dose in 100 μL gavage volume
Protocol: The average weight of the mice (27.9 g) was calculated on the second day of the Citrobacter rodentium infection, and this average weight was used to calculate the steroid concentrations for all treatments. The steroids were dissolved as best as possible in sterile water, and stored at 4° C. until needed. Steroids were administered by gavage in […] for 3 consecutive days at the same time each morning (24 hrs between treatments) for the final 3 days of the C. rodentium infection. Mice in the control groups (without drug intervention) received water by gavage in 100 μL volumes. Gavage needles for drug administration were coated in sucrose solution (1 g/mL, syringe-filter sterilized) as a refinement procedure.

SMILES: C[C@]12C=CC(=O)C=C1CC[C@@H]1[C@@H]2[C@@H](O)C[C@@]2(C)[C@H]1CC[C@]2(O)C(=O)CO [prednisolone, reference compound]
- blood present in ceca (gross observation) [1]: more blood present in ceca than dexamethasone treatment; also recorded: more blood in cecal area
- histological score, distal colon [2]: 18
- Crypt Height ([3]; cecal tissue): 1.5
- Epithelia Hyperplasia ([3]; cecal tissue): 1.5
- Epithelial Injury ([3]; cecal tissue): 1
- Fibrosis ([3]; cecal tissue): 1
- Globlet cell ([3]; cecal tissue): 0.5
- Inflamm ([3]; cecal tissue): 1.5
- Mitotic Act. ([3]; cecal tissue): 1
- Total Score ([3]; cecal tissue): 8
- Crypt Height ([3]; distal colon): 1.5
- Epithelia Hyperplasia ([3]; distal colon): 1.5
- Epithelial Injury ([3]; distal colon): 2
- Fibrosis ([3]; distal colon): 1.5
- Globlet cell ([3]; distal colon): 0.5
- Inflamm ([3]; distal colon): 1.5
- Mitotic Act. ([3]; distal colon): 1.5
- Total Score ([3]; distal colon): 10
- Crypt Height ([3]; proximal colon): 2
- Epithelia Hyperplasia ([3]; proximal colon): 1.5
- Epithelial Injury ([3]; proximal colon): 2
- Fibrosis ([3]; proximal colon): 0
- Globlet cell ([3]; proximal colon): 0.5
- Inflamm ([3]; proximal colon): 1.5
- Mitotic Act. ([3]; proximal colon): 1.5
- Total Score ([3]; proximal colon): 9
- dissolution in water [4]: did not fully dissolve in water

Source: patent US20220184220A1, “XYLOGLUCAN-CONTAINING PRODRUGS AND METHODS OF MANUFACTURE AND USE THEREOF” (priority 2019, published 2022)
